Data reported in patent US20090069320A1, “Substituted 4-Amino-Quinazoline Compounds with Metabotropic Glutamate Receptor Regulating Activity and Uses Thereof” (Gruenenthal GmbH, priority 2006, published 2009).

Target: T1, mGluR5 receptor (Sus scrofa, UniProt I3LUI7)
T1 construct: 450 μg of protein from brain homogenate with 5 nM ^3[H]-MPEP; from tissue; host or cells: pig brain halves without medulla, cerebellum and pons
Assay: [3H]-MPEP mGluR5 receptor binding assay (pig brain homogenate)
Settings: 10 μM compound, 5 nM [3H]-MPEP
Outline: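 Radioligand displacement of 5 nM [3H]-MPEP from pig brain homogenate (450 μg protein; medulla, cerebellum and pons removed) in 20 mM Hepes pH 8.0. Compounds were tested at 10 μM, incubated 60 min at room temperature, then filtered and counted by scintillation. Non-specific binding was defined with 10 μM MPEP.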

T1 sequence (I3LUI7 19-1212): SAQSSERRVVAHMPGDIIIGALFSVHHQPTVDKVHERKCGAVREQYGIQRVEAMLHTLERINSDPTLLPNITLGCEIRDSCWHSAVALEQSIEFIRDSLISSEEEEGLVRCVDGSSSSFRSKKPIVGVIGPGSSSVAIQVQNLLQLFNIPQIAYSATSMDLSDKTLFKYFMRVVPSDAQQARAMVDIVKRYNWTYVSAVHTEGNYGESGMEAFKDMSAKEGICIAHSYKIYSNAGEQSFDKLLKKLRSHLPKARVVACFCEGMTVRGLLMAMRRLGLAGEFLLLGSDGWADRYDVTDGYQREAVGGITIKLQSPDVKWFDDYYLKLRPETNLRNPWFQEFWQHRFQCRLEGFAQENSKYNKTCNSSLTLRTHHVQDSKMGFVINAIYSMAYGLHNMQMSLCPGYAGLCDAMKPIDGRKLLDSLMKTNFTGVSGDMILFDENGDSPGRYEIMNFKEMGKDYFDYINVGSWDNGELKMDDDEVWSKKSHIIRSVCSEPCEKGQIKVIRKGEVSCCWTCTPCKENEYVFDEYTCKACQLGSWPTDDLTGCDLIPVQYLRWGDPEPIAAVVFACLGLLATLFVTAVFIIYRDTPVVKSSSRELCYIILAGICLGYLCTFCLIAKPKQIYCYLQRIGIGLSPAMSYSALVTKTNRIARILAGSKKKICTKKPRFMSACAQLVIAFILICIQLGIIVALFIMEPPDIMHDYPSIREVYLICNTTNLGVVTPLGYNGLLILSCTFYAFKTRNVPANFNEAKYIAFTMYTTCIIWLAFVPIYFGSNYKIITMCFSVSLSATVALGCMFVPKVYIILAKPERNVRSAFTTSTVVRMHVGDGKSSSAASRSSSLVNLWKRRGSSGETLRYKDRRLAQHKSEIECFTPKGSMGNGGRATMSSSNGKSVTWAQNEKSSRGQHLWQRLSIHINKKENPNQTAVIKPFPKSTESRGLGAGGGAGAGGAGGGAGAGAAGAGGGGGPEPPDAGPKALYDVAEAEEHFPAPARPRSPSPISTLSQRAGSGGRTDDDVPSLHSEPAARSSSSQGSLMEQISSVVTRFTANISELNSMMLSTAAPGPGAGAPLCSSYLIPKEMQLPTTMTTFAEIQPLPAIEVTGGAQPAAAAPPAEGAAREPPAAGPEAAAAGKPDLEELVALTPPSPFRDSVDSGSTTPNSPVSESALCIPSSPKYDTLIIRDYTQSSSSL

Question: With `CC(C)(C)Nc1ncnc2ccc(-c3ccc(F)c(CN(C(=O)c4cccs4)C4CC4)c3)cc12` [Example 819, N-(5-(4-(tert-butylamino)quinazolin-6-yl)-2-fluorobenzyl)-N-cyclopropyl thiophene-2-carboxamide] as the compound, how does the “% Inhibition of mGluR5 Receptor (pig) [^3H]-MPEP Bond at 10 μM” value (“% Inhibition of mGluR5 Receptor (pig)” for short) read?
Answer: 88%

Question: For `CC(C)(C)Nc1ncnc2ccc(-c3ccc(F)c(CN(C(=O)c4cc(Cl)cc(Cl)c4)C4CC4)c3)cc12` [Example 820, N-(5-(4-(tert-butylamino)quinazolin-6-yl)-2-fluorobenzyl)-3,5-dichloro-N-cyclopropyl benzamide], which “% Inhibition of mGluR5 Receptor (pig)” value is on record?
Answer: 48%

Question: Which “% Inhibition of mGluR5 Receptor (pig)” value does the source give for `CC(C)(C)Nc1ncnc2ccc(-c3ccc(F)c(CN(C(=O)CCc4ccccc4)C4CC4)c3)cc12` [Example 821, N-(5-(4-(tert-butylamino)quinazolin-6-yl)-2-fluorobenzyl)-N-cyclopropyl-3-phenyl propanamide] here?
Answer: 84%

Question: How did the “% Inhibition of mGluR5 Receptor (pig)” value turn out when `CC(C)S(=O)(=O)N(Cc1cc(-c2ccc3ncnc(NC(C)(C)C)c3c2)ccc1F)C1CC1` [Example 822, N-(5-(4-(tert-butylamino)quinazolin-6-yl)-2-fluorobenzyl)-N-cyclopropyl propane-2-sulfonamide] was run?
Answer: 86%

Question: How did the “% Inhibition of mGluR5 Receptor (pig)” value turn out when `CC(C)(C)Nc1ncnc2ccc(-c3ccc(F)c(CN(C(=O)c4ccccn4)C4CC4)c3)cc12` [Example 826, N-(5-(4-(tert-butylamino)quinazolin-6-yl)-2-fluorobenzyl)-N-cyclopropyl picolinamide] was run?
Answer: 98%

Question: Which “% Inhibition of mGluR5 Receptor (pig)” value does the source give for `CC(C)(C)Nc1ncnc2ccc(-c3ccc(F)c(CN(C4CC4)S(C)(=O)=O)c3)cc12` [Example 827, N-(5-(4-(tert-butylamino)quinazolin-6-yl)-2-fluorobenzyl)-N-cyclopropyl methane sulfonamide] here?
Answer: 87%

Question: Which “% Inhibition of mGluR5 Receptor (pig)” value does the source give for `CC(C)(C)Nc1ncnc2ccc(-c3ccc(F)c(CN(C(=O)c4ccncc4)C4CC4)c3)cc12` [Example 832, N-(5-(4-(tert-butylamino)quinazolin-6-yl)-2-fluorobenzyl)-N-cyclopropyl isonicotinamide] here?
Answer: 96%

Question: `CC(C)(C)Nc1ncnc2ccc(-c3ccc(F)c(CN(C4CC4)S(=O)(=O)Cc4ccccc4)c3)cc12` [Example 833, N-(5-(4-(tert-butylamino)quinazolin-6-yl)-2-fluorobenzyl)-N-cyclopropyl-1-phenyl methane sulfonamide] was tested. Which “% Inhibition of mGluR5 Receptor (pig)” value did it give?
Answer: 43%

Question: How did the “% Inhibition of mGluR5 Receptor (pig)” value turn out when `CC(C)(C)Nc1ncnc2ccc(-c3ccc(F)c(CN(C(=O)c4ccno4)C4CC4)c3)cc12` [Example 834, N-(5-(4-(tert-butylamino)quinazolin-6-yl)-2-fluorobenzyl)-N-cyclopropyl isoxazole-5-carboxamide] was run?
Answer: 42%

Question: `CC(C)(C)Nc1ncnc2ccc(-c3ccc(F)c(CN(C(=O)c4ccccc4)C4CC4)c3)cc12` [Example 837, N-(5-(4-(tert-butylamino)quinazolin-6-yl)-2-fluorobenzyl)-N-cyclopropyl benzamide] was tested. Which “% Inhibition of mGluR5 Receptor (pig)” value did it give?
Answer: 86%

Question: With `CC(C)(C)Nc1ncnc2ccc(-c3ccc(F)c(CN(C(=O)c4cccnc4)C4CC4)c3)cc12` [Example 838, N-(5-(4-(tert-butylamino)quinazolin-6-yl)-2-fluorobenzyl)-N-cyclopropyl nicotinamide] as the compound, how does the “% Inhibition of mGluR5 Receptor (pig)” value read?
Answer: 92%

Question: How did the “% Inhibition of mGluR5 Receptor (pig)” value turn out when `CC(=O)N(Cc1cc(-c2ccc3ncnc(NC(C)(C)C)c3c2)ccc1F)C1CC1` [Example 844, N-(5-(4-(tert-butylamino)quinazolin-6-yl)-2-fluorobenzyl)-N-cyclopropyl acetamide] was run?
Answer: 94%

Question: `O=S(=O)(c1c(F)c(F)c(F)c(F)c1F)N(Cc1cc(-c2ccc3ncnc(NC4CC4)c3c2)ccn1)C1CC1` [Example 848, N-cyclopropyl-N-((4-(4-(cyclopropylamino)quinazolin-6-yl)pyridin-2-yl)methyl)-2,3,4,5,6-pentafluorobenzole sulfonamide] was tested. Which “% Inhibition of mGluR5 Receptor (pig)” value did it give?
Answer: 53%

Question: For `CC(C)(C)Nc1ncnc2ccc(-c3ccc(F)c(CN(C(=O)C(C)(C)C)C4CC4)c3)cc12` [Example 850, N-(5-(4-(tert-butylamino)quinazolin-6-yl)-2-fluorobenzyl)-N-cyclopropyl pivalamide], which “% Inhibition of mGluR5 Receptor (pig)” value is on record?
Answer: 83%

Same assay, conditions: 10 μM compound, 5 nM [3H]-MPEP, read-out: % Inhibition of mGluR5 Receptor (pig) [^3H]-MPEP Bond at 10 μM

Question: How did the inhibition at 10 µM turn out when `O=C(c1ccccc1)N(Cc1cc(-c2ccc3ncnc(NC4CC4)c3c2)ccn1)C1CC1` [Example 813, N-cyclopropyl-N-((4-(4-(cyclopropylamino)quinazolin-6-yl)pyridin-2-yl)methyl)benzamide] was run?
Answer: 73%

Question: `CC(C)(C)Nc1ncnc2ccc(-c3ccc(F)c(CN(C(=O)c4ccccc4C(F)(F)F)C4CC4)c3)cc12` [Example 814, N-(5-(4-(tert-butylamino)quinazolin-6-yl)-2-fluorobenzyl)-N-cyclopropyl-2-(trifluoromethyl)benzamide] was tested. Which inhibition at 10 µM did it give?
Answer: 89%

Question: Which inhibition at 10 µM does the source give for `CC(C)(C)Nc1ncnc2ccc(-c3ccc(F)c(CN(C(=O)Cc4ccccc4)C4CC4)c3)cc12` [Example 815, N-(5-(4-(tert-butylamino)quinazolin-6-yl)-2-fluorobenzyl)-N-cyclopropyl-2-phenylacetamide] here?
Answer: 87%

Question: `O=C(c1ccc(F)cc1F)N(Cc1cc(-c2ccc3ncnc(NC4CC4)c3c2)ccn1)C1CC1` [Example 817, N-cyclopropyl-N-((4-(4-(cyclopropylamino)quinazolin-6-yl)pyridin-2-yl)methyl)-2,4-difluorobenzamide] was tested. Which inhibition at 10 µM did it give?
Answer: 71%

Question: `CC(C)S(=O)(=O)N(Cc1cccc(-c2ccc3ncnc(NCCc4ccccc4)c3c2)c1)C1CC1` [Example 818, N-cyclopropyl-N-(3-(4-(phenethylamino)quinazolin-6-yl)benzyl)propane-2-sulfonamide] was tested. Which inhibition at 10 µM did it give?
Answer: 34%

Question: For `O=C(c1ccncc1)N(Cc1cc(-c2ccc3ncnc(NC4CC4)c3c2)ccn1)C1CC1` [Example 823, N-cyclopropyl-N-((4-(4-(cyclopropylamino)quinazolin-6-yl)pyridin-2-yl)methyl)isonicotinamide], which inhibition at 10 µM is on record?
Answer: 62%

Question: How did the inhibition at 10 µM turn out when `CC(C)S(=O)(=O)N(Cc1cccc(-c2cc(F)c3ncnc(NC4CC4)c3c2)c1)C1CC1` [Example 824, N-cyclopropyl-N-(3-(4-(cyclopropylamino)-8-fluoroquinazolin-6-yl)benzyl)propane-2-sulfonamide] was run?
Answer: 71%

Question: Which inhibition at 10 µM does the source give for `Cc1nc(C(=O)N(Cc2cc(-c3ccc4ncnc(NC(C)(C)C)c4c3)ccc2F)C2CC2)cs1` [Example 825, N-(5-(4-(tert-butylamino)quinazolin-6-yl)-2-fluorobenzyl)-N-cyclopropyl-2-methylthiazole-4-carboxamide] here?
Answer: 97%

Question: For `CC(C)(C)C(=O)N(Cc1cc(-c2ccc3ncnc(NC4CC4)c3c2)ccn1)C1CC1` [Example 828, N-cyclopropyl-N-((4-(4-(cyclopropylamino)quinazolin-6-yl)pyridin-2-yl)methyl)pivalamide], which inhibition at 10 µM is on record?
Answer: 74%

Question: How did the inhibition at 10 µM turn out when `CCCCC(=O)N(Cc1cc(-c2ccc3ncnc(NC4CC4)c3c2)ccn1)C1CC1` [Example 829, N-cyclopropyl-N-((4-(4-(cyclopropylamino)quinazolin-6-yl)pyridin-2-yl)methyl)pentanamide] was run?
Answer: 45%

Question: How did the inhibition at 10 µM turn out when `Cc1nc(C(=O)N(Cc2cccc(-c3cc(F)c4ncnc(NC5CC5)c4c3)c2)C2CC2)cs1` [Example 830, N-cyclopropyl-N-(3-(4-(cyclopropylamino)-8-fluoroquinazolin-6-yl)benzyl)-2-methylthiazole-4-carboxamide] was run?
Answer: 90%

Question: Which inhibition at 10 µM does the source give for `Cc1cc(C(=O)N(Cc2cc(-c3ccc4ncnc(NC(C)(C)C)c4c3)ccc2F)C2CC2)n(C)n1` [Example 831, N-(5-(4-(tert-butylamino)quinazolin-6-yl)-2-fluorobenzyl)-N-cyclopropyl-1,3-dimethyl-1H-pyrazole-5-carboxamide] here?
Answer: 84%

Question: `O=C(C1CCCCC1)N(Cc1cc(-c2ccc3ncnc(NC4CC4)c3c2)ccn1)C1CC1` [Example 835, N-cyclopropyl-N-((4-(4-(cyclopropylamino)quinazolin-6-yl)pyridin-2-yl)methyl)cyclohexane carboxamide] was tested. Which inhibition at 10 µM did it give?
Answer: 58%

Question: How did the inhibition at 10 µM turn out when `CC(C)(C)Nc1ncnc2ccc(-c3ccc(F)c(CN(C(=O)c4c(F)c(F)c(F)c(F)c4F)C4CC4)c3)cc12` [Example 840, N-(5-(4-(tert-butylamino)quinazolin-6-yl)-2-fluorobenzyl)-N-cyclopropyl-2,3,4,5,6-pentafluorobenzamide] was run?
Answer: 74%

Question: `O=C(Cc1ccccc1)N(Cc1cc(-c2ccc3ncnc(NC4CC4)c3c2)ccn1)C1CC1` [Example 841, N-cyclopropyl-N-((4-(4-(cyclopropylamino)quinazolin-6-yl)pyridin-2-yl)methyl)-2-phenylacetamide] was tested. Which inhibition at 10 µM did it give?
Answer: 36%

Question: With `COc1ccc(C(=O)N(Cc2cc(-c3ccc4ncnc(NC(C)(C)C)c4c3)ccc2F)C2CC2)cc1OC` [Example 843, N-(5-(4-(tert-butylamino)quinazolin-6-yl)-2-fluorobenzyl)-N-cyclopropyl-3,4-dimethoxybenzamide] as the compound, how does the inhibition at 10 µM read?
Answer: 71%

Question: With `COCC(=O)N(Cc1cc(-c2ccc3ncnc(NC(C)(C)C)c3c2)ccc1F)C1CC1` [Example 846, N-(5-(4-(tert-butylamino)quinazolin-6-yl)-2-fluorobenzyl)-N-cyclopropyl-2-methoxyacetamide] as the compound, how does the inhibition at 10 µM read?
Answer: 82%

Question: How did the inhibition at 10 µM turn out when `O=C(CCc1ccccc1)N(Cc1cc(-c2ccc3ncnc(NC4CC4)c3c2)ccn1)C1CC1` [Example 847, N-cyclopropyl-N-((4-(4-(cyclopropylamino)quinazolin-6-yl)pyridin-2-yl)methyl)-3-phenylpropanamide] was run?
Answer: 43%

Question: How did the inhibition at 10 µM turn out when `CC(C)(C)Nc1ncnc2ccc(-c3ccc(F)c(CN(C(=O)c4cccc(F)c4)C4CC4)c3)cc12` [Example 849, N-(5-(4-(tert-butylamino)quinazolin-6-yl)-2-fluorobenzyl)-N-cyclopropyl-3-fluorobenzamide] was run?
Answer: 86%
